Measured values taken from patent US8946158B2, “Treatments of gastrointestinal disorders” (Ironwood Pharmaceuticals, Inc., priority 2009, dated 2015).
Positions of bridges follow the written chain, without caps; N, C: chain ends. Non-standard residues stand in square brackets, D forms with d. Residues, ends and D or L forms follow the SMILES beside them. pS = N[C@@H](COP(=O)(O)O)C(=O)O

How the values were obtained:
[1] = In vitro metabolism in mouse jejunum loop fluid; assay type: in vitro ADME; details: for Rate of degradation relative to peptide 2: mouse intestinal fluid
Protocol: The purpose of this study was to determine the stability of phosphorylated peptides in mouse jejunal loop fluid. […] The isotopically labeled peptide 2 was synthesized with ^13C, ^15N-labeled alanine and leucine (i.e., with a sequence CCpS[^13C6,^15N]LCCNP[^13C6,^15N]ACTGC (SEQ ID NO:16)).
Each peptide was synthesized by American Peptide Company, Inc., and was stored desiccated at −20° C. A 1 mg/mL solution for each of the non-labeled peptides was prepared in 1 M tris(hydroxymethyl)aminomethane hydrochloride (Tris-HCl), pH 8 just prior to conducting the mouse intestinal loop fluid assay. A 500 ng/mL solution of ^13C, ^15N-labeled peptide 2 was prepared in 0.1% formic acid in water and was utilized to dilute the jejunum samples for post-assay LC-MS/MS analysis.
To collect the fluid, mice were fasted overnight with full access to water. They were then anesthetized with isofluorane for surgery and subjected to laparotomy in which the small intestine was exteriorized. Jejunum loops of 3 to 4 cm in length were made with sutures starting at 7 cm from the pyloric sphincter of the stomach. Once the loops were formed, they were injected with 200 μL of phosphate buffered saline (PBS) buffer (10 mM, pH 7.4). The abdominal wall and skin of the animals were then sutured, and the animals were allowed to recover for 30 minutes. Following recovery, the animals were sacrificed, the loops were then excised and the fluid inside was recovered and stored at −80° C. until use.
For each peptide, 25 μL of the 1 mg/mL peptide stock solution was added to 25 μL of 1 M Tris-HCl and 25 μL of 10× calf intestinal phosphatase (CIP) buffer containing 500 mM Tris-HCl, 1 M sodium chloride (NaCl), 0.1 mM magnesium chloride (MgCl2), pH 8. The reactions were initiated by adding 175 μL of the mouse jejunum loop fluid or 175 μL of the 1 M Tris-HCl pH8 buffer for the control reactions. The final concentration of each peptide was 100 μg/mL. The reactions were continuously mixed and maintained at 37° C. on a plate shaker. At 0, 2, 5, 10, 20, 30, 60, 90 and 120 minutes after adding the mouse intestinal loop fluid, a 25 μL aliquot was taken and added to 25 μL of 4° C. 12% trichloroacetic acid to stop the reaction. An additional 200 μL of 0.1% formic acid in water was added to these reactions for dilution purposes. These samples were then further diluted by taking 20 μL of each sample and adding it to 480 μL of 0.1% formic acid in water containing 500 ng/mL of the internal standard 13C, 15N-labeled peptide 2.
All samples were analyzed using an Applied Biosystems/MDS SCIEX API 4000 triple quadrupole mass spectrometer equipped with a high-performance liquid chromatography (HPLC) system. The mass spectrometer was operated in multiple reaction monitoring (MRM) mode, with resolution set to 1.2 Da. […]

[2] = molecular target: T1, Calf intestinal alkaline phosphatase (CIP) (Bos taurus, UniProt P19111); test: Alkaline phosphatase reaction (dephosphorylation of peptide substrates, LC-MS); assay type: in vitro ADME; details: with and without calf intestinal alkaline phosphatase; data not shown
T1 construct: purchased New England BioLabs M0290S
Protocol: For the alkaline phosphatase reactions, peptide stocks were prepared at 1 mg/mL in 0.1 M Tris-HCl pH 8, which were stored at −20° C. until assays were conducted. For the acid phosphatase reactions, peptide stocks were prepared at 1 mg/mL in 50 mM sodium phosphate pH 6, which was stored at −20° C. until assays were conducted.
Calf intestinal alkaline phosphatase (CIP) was obtained from New England BioLabs, Ipswich, Mass. Cat #M0290S. The CIP reaction solution was prepared by dilution with buffer (50 mM KCl, 10 mM Tris-HCl pH 8, 1 mM MgCl2, 50% glycerol) to 0.5 units/μL. The alkaline phosphatase reaction solutions were assembled in 20 μL quantities containing: • 2 μL 10× CIP buffer (1M NaCl, 500 mM Tris-HCl pH 8, 100 mM MgCl2) • 2 μL peptide stock (1 mg/mL) • 12 μL H2O • 4 μL alkaline phosphatase (0, 0.5 or 2 units)
The reaction solutions were mixed gently and incubated for 90 minutes at 37° C. These reaction solutions were stored at −20° C. until analysis. For analysis, the reaction solutions were diluted from […] of CIP treated peptide to 50 μL with 0.1% formic acid in water to a final concentration of 10 μM.
Control reactions were assembled for enzyme activity containing 10 mM p-nitrophenylphosphate in place of peptide. After incubation, the reactions were diluted with 0.1 mL of 100 mM borate buffer pH 9 and read at the absorbance of 405 nm to monitor p-nitrophenol appearance.

[3] = system: upper GI transit in mice; test: Gastrointestinal transit in mice (charcoal meal); assay type: in vivo; details: female CD-1 mice; oral gavage; distance travelled by charcoal front, % of small intestine
Protocol: The purpose of the assay was to test the effect of the guanylate cyclase C agonist peptides on in vivo gastrointestinal transit in mice.
For the assay, female CD-1 mice (n=10 per group) weighing 25-30 g were fasted overnight and given access to water ad libitum. Activated charcoal (20 g; 100 mesh; Sigma cat #242276) was suspended in 200 mL gum arabic (100 mg/mL), and stirred for at least one hour. Test peptides were prepared in a 20 mM Tris pH 6.9 vehicle.
Test peptide and vehicle were administered in 200 μL doses by oral gavage. Seven minutes after dosing the test peptides, 200 μL of the charcoal/gum arabic suspension was dosed by oral gavage. […] The total length of the small intestine was measured from the pyloric junction to the ileocaecal junction. The distance travelled by the charcoal was measured from the pyloric junction to the charcoal front. The Distance Travelled (%) was determined as (distance travelled by charcoal/total length of the small intestine)×100. Data were entered into the GraphPad Prism software program and analyzed by ANOVA using a Bonferroni multiple comparison test post-hoc. Plots of data and ED50 were also determined using the GraphPad Prism software package.
The dose-dependent effects of acute doses of Peptide 4, Peptide 1, Peptide 2, the dephosphorylated form of Peptide 1 and the dephosphorylated form of Peptide 2 on GI transit were determined in female CD mice. […]

[4] = system: ligated rat duodenal loops; test: Fluid secretion in rat intestinal loops; assay type: in vivo; details: 2.5 μg of peptide per loop
Protocol: The effect of GC-C agonist peptides on secretion were studied by injecting GC-C agonist peptides described herein directly into an isolated loop in wild-type rats.
Loops were isolated by surgically ligating three loops in the small intestine of the rat. The methodology for ligated loop formation was similar to that described in (London et al., 1997, Am J Physiol, p. G93-105). The loops were roughly centered and at lengths of 1-3 cm. The loops were injected with 200 μl of either peptide/GC-C agonist (0.1-5 μg) or vehicle (20 mM Tris, pH 7.5 or Krebs Ringer, 10 mM Glucose, HEPES buffer (KRGH)). Following a recovery time of up to 90 minutes the loops were excised. Weights were recorded for each loop before and after removal of the fluid contained therein. The length of each loop was also recorded. A weight to length ratio (W/L) for each loop was calculated to determine the effects of the GC-C agonist peptide described herein on secretion. Loop fluid volume was also determined.
Data showing increases in fluid secretion, pH increase and bicarbonate secretion in ligated duodenal loops in rats are shown in FIG. 2 and Table 8. […] Table 8 provides the results in ligated rat duodenal loops using 2.5 μg of peptide per loop.

T1 sequence (P19111 20-506): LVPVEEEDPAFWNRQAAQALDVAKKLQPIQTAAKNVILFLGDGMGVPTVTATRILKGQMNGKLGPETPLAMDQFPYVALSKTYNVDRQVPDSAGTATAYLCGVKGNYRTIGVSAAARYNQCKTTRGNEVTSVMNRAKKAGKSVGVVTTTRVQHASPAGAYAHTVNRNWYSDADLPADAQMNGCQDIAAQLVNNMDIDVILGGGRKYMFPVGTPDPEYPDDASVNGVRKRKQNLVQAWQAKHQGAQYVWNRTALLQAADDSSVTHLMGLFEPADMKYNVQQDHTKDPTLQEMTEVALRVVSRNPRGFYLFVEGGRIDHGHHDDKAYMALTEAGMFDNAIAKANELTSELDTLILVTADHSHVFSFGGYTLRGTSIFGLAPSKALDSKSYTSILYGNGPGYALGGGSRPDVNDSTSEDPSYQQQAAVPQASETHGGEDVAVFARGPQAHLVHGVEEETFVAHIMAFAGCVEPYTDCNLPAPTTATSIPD

Molecule: CC(C)C[C@@H]1NC(=O)[C@H](CO)NC(=O)[C@@H]2CSSC[C@@H]3NC(=O)[C@H](C)NC(=O)[C@@H]4CCCN4C(=O)[C@H](CC(N)=O)NC(=O)[C@H](CSSC[C@H](N)C(=O)N2)NC(=O)[C@H](CSSC[C@@H](C(=O)O)NC(=O)CNC(=O)[C@H]([C@@H](C)O)NC3=O)NC1=O [Dephospho-Peptide 2, CCSLCCNPACTGC] (H-CCSLCCNPACTGC-OH; disulfide 1-6, 2-10, 5-13 (inferred); N-terminus and C-terminus assumed)
- Rate of degradation relative to peptide 2 [1]: degraded faster in mouse intestinal fluid than peptide 2

Molecule: CC(C)C[C@@H]1NC(=O)[C@H](COP(=O)(O)O)NC(=O)[C@@H]2CSSC[C@@H]3NC(=O)[C@H](C)NC(=O)[C@@H]4CCCN4C(=O)[C@H](CC(N)=O)NC(=O)[C@H](CSSC[C@H](N)C(=O)N2)NC(=O)[C@H](CSSC[C@@H](C(=O)O)NC(=O)CNC(=O)[C@H]([C@@H](C)O)NC3=O)NC1=O [Peptide 2, CCpSLCCNPACTGC] (H-CC[pS]LCCNPACTGC-OH; disulfide 1-6, 2-10, 5-13 (inferred); N-terminus and C-terminus assumed)
- Metabolite formation ([1]; mouse jejunum loop fluid at 37° C.): Formation of dephospho-peptide 2 was observed

Molecule: CC(C)C[C@@H]1NC(=O)[C@H](CCC(=O)O)NC(=O)[C@@H]2CSSC[C@@H]3NC(=O)[C@H](C)NC(=O)[C@@H]4CCCN4C(=O)[C@H](CC(N)=O)NC(=O)[C@H](CSSC[C@H](N)C(=O)N2)NC(=O)[C@H](CSSC[C@@H](C(=O)N[C@@H](Cc2ccc(O)cc2)C(=O)O)NC(=O)CNC(=O)[C@H]([C@@H](C)O)NC3=O)NC1=O [Peptide 3, CCELCCNPACTGCY] (H-CCELCCNPACTGCY-OH; disulfide 1-6, 2-10, 5-13 (inferred); N-terminus and C-terminus assumed)
- Effect of CIP treatment on peptide (LC-MS) [2]: not affected
- Rate of degradation relative to peptide 2 [1]: degraded faster in mouse intestinal fluid than peptide 2
- Peptide remaining (detection) ([1]; mouse jejunum fluid, after 90 minutes, 37° C.): not detected

Molecule: CCEFCCNPACTGCY (Synthetically generated peptide (Peptide 4))
- ED50, acceleration of upper GI transit in mice [3]: 2.06 µg/kg
- Rate of HCO3− accumulation [4]: 0.00008 Meq/min/cm
- Rate of fluid accumulation [4]: 2.0 µL/min/cm
- pH [4]: 8.2
